The results in this text go back to PubChem BioAssay (NCI).

Holding throughout (test): DTP human tumour cell line panel, 48 h
Experiment [1] concerns 786-0 renal.
Experiment [2] deals with SK-MEL-2 melanoma.
The subject of experiment [3] is HCC-2998 colon.
For experiment [4], the system named is ACHN renal.
Experiment [5] deals with SK-MEL-5 melanoma.
Experiment [6] has as its system RXF 393 renal.
Experiment [7] deals with SR leukemia.
Experiment [8] relates to UACC-62 melanoma.
The subject of experiment [9] is SW-620 colon.
In experiment [10] the test system is LOX IMVI melanoma.

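Assay format: 96-well plates, 48-hour exposure. GI50 = concentration required for 50% inhibition of growth. Definition used: TGI = concentration required for complete inhibition of growth.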

On to `C=C(C(N)=O)c1ccc([N+](=O)[O-])o1`, for which the TGI (commonly the concentration at which net growth stops) in experiment [1] came to 24.1 µM; in experiment [2], 22.5 µM; in experiment [3], 33.6 µM; in experiment [4] it was 12.2 µM; in experiment [5], 16.4 µM; in [6], 9.64 µM. In addition, the TGI worked out at 36.9 µM in experiment [7], 21.4 µM in [8], 32.3 µM in experiment [9] and 23.1 µM in [10].

`Cc1ccccc1OCC(O)CN1CCN(c2ccc(Cl)cc2)CC1` (stereo not given): the GI50 (as a rule, the concentration at which growth is held to half of that of the control) in experiment [1] is 17.4 µM; in experiment [2], 18.7 µM; in experiment [3], 16.7 µM; in experiment [4] it was 18.8 µM; in experiment [5], 16.3 µM; in [6], 20.2 µM. The GI50 in [7] was 14.3 µM; in [8] it was 13800 nM; in experiment [9], 16.1 µM; in [10], 15300 nM. In addition, the TGI came out at 32.6 µM in experiment [1]; 35 µM in experiment [2]; 31.6 µM in experiment [3]; 42.2 µM in experiment [4]; 30.2 µM in experiment [5]; 37.8 µM in experiment [6]. In addition, the TGI in [7] was 40.1 µM; in experiment [8] it was 27.5 µM; in experiment [9], 33.1 µM; in experiment [10] it was 31.3 µM.

Turning to `COc1ccc(CCN2CC=Cn3c2nc2ccccc2c3=O)cc1`, the GI50 in experiment [1] was 0.0445 µM; in [2] it was 0.0334 µM; in experiment [3] it was 0.0332 µM; in experiment [4], 0.0919 µM; in experiment [5], 0.0265 µM; in experiment [6], 0.0309 µM. The GI50 was 0.0354 µM in experiment [7], 232 nM in [8], 0.037 µM in experiment [9] and 58.5 nM in [10]. In addition, the TGI was 31.6 µM in [1]; 32.9 µM in experiment [2]; 35.5 µM in [3]; > 49.2 µM in experiment [4]; 0.154 µM in experiment [5]; > 100 µM in experiment [6]. Moreover, the TGI in experiment [7] is > 100 µM; in experiment [8], > 100 µM; in [9], > 100 µM; in experiment [10], > 40.1 µM.

In the case of `COc1cc2ccnc3c2c(c1OC)-c1coc(SC)c1-3`, the TGI in experiment [1] was > 100 µM; in [2], > 100 µM; in experiment [3] it was > 100 µM; in experiment [4], > 100 µM; in experiment [5] it was > 100 µM; in experiment [6], 52.1 µM. In addition, the TGI in experiment [7], in [8], in experiment [9] and in experiment [10] was > 100 µM in each case.

On to `CCOc1cc2c(C(=O)CC)c(O)ccc2o1`, for which the TGI in experiment [1] was > 100 µM; in experiment [2], > 100 µM; in [3], > 100 µM; in experiment [4], > 100 µM; in experiment [5], > 63.3 µM; in [6], > 95.7 µM. Also, the TGI in experiment [7] was > 100 µM; in [8], > 52.8 µM; in experiment [9], > 100 µM; in [10], > 100 µM.

As for `O=C(c1ccc(Cl)cc1Cl)C1[C@H]2C(=O)N(c3ccc(Cc4ccc(N5C(=O)[C@@H]6ON(c7ccccc7)C(C(=O)c7ccc(Cl)cc7Cl)[C@@H]6C5=O)cc4)cc3)C(=O)[C@H]2ON1c1ccccc1` (stereo not given in full), the TGI in experiment [1], in experiment [2], in [3], in experiment [4], in experiment [5] and in experiment [6] was > 50 µM each time. Besides, the TGI in experiment [7], in [8], in experiment [9] and in experiment [10] was > 50 µM each time.

With `COc1cc(OC)c2nc(C)c3c(c2c1)SCC3`, the TGI in experiment [1] was 35.4 µM; in experiment [2] it was 67.5 µM; in experiment [3], > 100 µM; in experiment [4], 34.5 µM; in experiment [5], 49.8 µM; in [6] it was 54.1 µM. The TGI in [7] is 52.2 µM; in experiment [8], 56.4 µM; in experiment [9], > 100 µM; in [10], > 100 µM.

On to `CC1=C(c2cccc(O)c2)[C@H](c2ccc(OCCN3CC(CF)C3)cc2)Oc2ccc(O)cc21`, for which the GI50 was 5.15 µM in experiment [1]; 7.2 µM in experiment [2]; 3.84 µM in experiment [3]; 6.2 µM in experiment [4]; 3.58 µM in [5]; 3.46 µM in experiment [6]. Moreover, the GI50 in experiment [7] is 3.76 µM; in [8] it was 10400 nM; in experiment [9] it was 7.28 µM; in [10] it was 2230 nM. Moreover, the TGI was 18.9 µM in experiment [1]; 20.9 µM in experiment [2]; 15.4 µM in experiment [3]; 18.6 µM in experiment [4]; 12.8 µM in experiment [5]; 12.1 µM in [6]. Also, the TGI in experiment [7] worked out at 36.2 µM; in experiment [8], 22.6 µM; in experiment [9], 20.9 µM; in experiment [10], 5.16 µM.

`NCCCC[C@@H]1NC(=O)[C@H]2CCCN2C(=O)[C@H](Cc2ccccc2)CNC(=O)[C@H](Cc2ccccc2)NC1=O`: the GI50 in experiment [1], in [2], in experiment [3], in experiment [4], in experiment [5] and in [6] was > 37.5 µM each time. The GI50 in experiment [7] is 31.9 µM; in [8], > 37500 nM; in [9], > 37.5 µM; in experiment [10], > 37500 nM. Also, the TGI in experiment [1], in experiment [2], in experiment [3], in [4], in experiment [5] and in experiment [6] was > 37.5 µM each time. Also, the TGI in experiment [7], in experiment [8], in experiment [9] and in [10] was > 37.5 µM in each case.

Turning to `Cc1cc2c(C(C)C)c(O)c(O)cc2c(O)c1-c1c(C)cc2c(C(C)C)c(O)c(O)cc2c1O`, the GI50 in experiment [1] is 16.7 µM; in experiment [2], 17.7 µM; in [3], 16.4 µM; in [4] it was 8.66 µM; in [5], 12.6 µM; in experiment [6] it was 15.1 µM. For the same molecule, the GI50 in [7] was 8.24 µM; in experiment [8], 2320 nM; in experiment [9] it was 16.7 µM; in experiment [10], 4420 nM. Moreover, the TGI in experiment [1] stood at 33.9 µM; in experiment [2], 33.9 µM; in experiment [3], 30 µM; in [4], 21.9 µM; in experiment [5] it was 26 µM; in experiment [6], 33.5 µM. Moreover, the TGI was found to be 28.4 µM in experiment [7], 14.3 µM in [8], 40.5 µM in experiment [9] and 16.2 µM in experiment [10].

Consider `COc1c(O)c2c3c(cc(C)cc3c1C(C)C)OC2`, for which the TGI in experiment [1], in [2], in [3], in [4], in experiment [5] and in experiment [6] was > 100 µM in each case. Moreover, the TGI in experiment [7], in experiment [8], in [9] and in [10] was > 100 µM each time.

For `COc1ccc2c(c1)c(CC(=O)[Se]C)c(C)n2C(=O)c1ccc(Cl)cc1`, the GI50 in [1] is > 0.197 µM; in experiment [2], > 0.436 µM; in [3], > 0.673 µM; in [4] it was > 0.56 µM; in experiment [5], > 0.434 µM; in experiment [6] it was > 0.206 µM. Further, the GI50 in [7] is > 0.507 µM; in experiment [8], > 445 nM; in experiment [9], > 0.468 µM; in experiment [10], > 203 nM. For the same molecule, the TGI is > 0.428 µM in experiment [1]; > 0.794 µM in [2]; > 1 µM in experiment [3]; > 1 µM in experiment [4]; > 0.608 µM in experiment [5]; > 0.5 µM in experiment [6]. Besides, the concentration for total growth inhibition (TGI) in experiment [7] is > 1 µM; in experiment [8], > 1 µM; in experiment [9], > 0.854 µM; in [10] it was > 0.528 µM.

As for `C#CC#CC#CC#CC#CC#CC#CC#CCC1OCC(COC(=O)O[C@@H](C(=O)O[C@H]2C[C@@]3(O)[C@@H](OC(=O)c4ccccc4)[C@@H]4[C@]5(OC(C)=O)CO[C@@H]5C[C@H](O)[C@@]4(C)C(=O)[C@H](OC(C)=O)C(=C2C)C3(C)C)[C@@H](NC(=O)c2ccccc2)c2ccccc2)O1` (stereo not given in full), the GI50 in experiment [1] was 2.15 µM; in experiment [2], 0.603 µM; in experiment [3], 0.287 µM; in experiment [4], > 24.7 µM; in [5] it was 0.671 µM; in experiment [6], 0.599 µM. Also, the GI50 is 0.0991 µM in experiment [7], 511 nM in experiment [8], 0.104 µM in [9] and 27.5 nM in experiment [10]. Also, the TGI in [1] was > 33.3 µM; in experiment [2], > 33.3 µM; in experiment [3] it was > 33.3 µM; in experiment [4], > 33.3 µM; in experiment [5], > 9.85 µM; in experiment [6], > 8.96 µM. Moreover, the TGI in experiment [7], in [8], in [9] and in [10] was > 33.3 µM throughout.

`COc1cc(C(=O)c2c(-c3ccccc3)oc3c(OC)cccc23)cc(OC)c1OC`: the GI50 in [1] was 0.073 µM; in experiment [2], 2.4 µM; in [3], 0.211 µM; in experiment [4], 0.0719 µM; in [5], 0.157 µM; in experiment [6] it was 0.0414 µM. The GI50 in [7] is 0.0363 µM; in experiment [8], 52.2 nM; in experiment [9], 0.0497 µM; in [10], 53.6 nM. Also, the TGI in [1] is 3.1 µM; in [2], > 84.5 µM; in [3], > 100 µM; in experiment [4], > 100 µM; in [5], 0.733 µM; in [6], 4.69 µM. The TGI in [7] is > 100 µM; in [8] it was > 96.5 µM; in [9] it was > 100 µM; in experiment [10], > 100 µM.

For the molecule `Cc1[nH]c2ccccc2c1CCCO`, the GI50 in experiment [1], in experiment [2], in experiment [3], in experiment [4], in experiment [5] and in experiment [6] was > 100 µM throughout. Further, the GI50 in experiment [7] is > 100 µM; in experiment [8], > 100000 nM; in experiment [9], > 100 µM; in experiment [10], > 100000 nM. Further, the TGI in [1], in experiment [2], in experiment [3], in [4], in experiment [5] and in experiment [6] was > 100 µM throughout. Besides, the TGI in experiment [7], in experiment [8], in [9] and in experiment [10] was > 100 µM each time.

`NNC(=O)C1CCC(=O)N1S(=O)(=O)c1ccccc1` (stereo not given): the total growth inhibition concentration (TGI) in [1], in experiment [2], in experiment [3], in [4], in experiment [5] and in [6] was > 100 µM in each case. Further, the TGI in [7], in experiment [8], in experiment [9] and in [10] was > 100 µM throughout.

For `CC1CCC/C1=C(/I)C(=O)c1ccccc1` (stereo not given), the TGI was > 100 µM in experiment [1]; > 100 µM in [2]; > 100 µM in experiment [3]; > 100 µM in experiment [4]; 69.5 µM in [5]; > 100 µM in experiment [6]. Besides, the TGI in experiment [7] is 78.1 µM; in experiment [8], > 100 µM; in experiment [9], > 100 µM; in [10], 92.7 µM.

Consider `COc1cc2c[n+](C)c3c4cc(OC)c(OC(C)C)cc4ccc3c2cc1OC`, for which the total growth inhibition concentration (TGI) in experiment [1] is > 100 µM; in experiment [2] it was 40 µM; in experiment [3], > 100 µM; in experiment [4], > 100 µM; in experiment [5] it was > 100 µM; in experiment [6], > 100 µM. The TGI in experiment [7], in [8], in [9] and in experiment [10] was > 100 µM in each case.
